Reference: US20030219456A1, “Method of utilization of zygosaccharomyces rouxii” (priority 2002, published 2003)

Experiments:
Format in all cases: biochemical
[1] = DPPH free radical scavenging activity (preferred embodiment); conditions: standard compounds 100 mg/ml (0.1 g/ml) in ethyl alcohol; OD 517 nm, 30 min
Method: Free radical scavenging activity was then evaluated. Standard solutions (0.1 g/ml in ethyl alcohol) of BHA, BHT and vitamin E were freshly prepared. DPPH scavenging activity was determined as described below. The following observations and results were then recorded: [table] Optical density OD was measured at 517 nm at 0 min and 30 min after mixing. Percent free radical scavenging activity was calculated as follows: Percent activity=100×{Ac1−(At2−Ab1)}/Ac2, Where Ac1=OD of control at 0 min At2=OD of test at 30 min Ab1=OD of blank at 0 min Ac2=OD of control at 30 min

[2] = DPPH free radical scavenging activity (Example 9); conditions: standard compounds 100 mg/ml in ethyl alcohol
Method: The said Sample was washed with ethyl acetate to get organic acids crystallized out. The crystals mainly consisted of succinic acid, which was identified by RI and H-NMR. The remaining magma, called bio-polyphenols (BPP) was tested for its anti-oxidant activity. The BPP was dissolved in ethyl alcohol to get concentrations of 100 mg/ml to 400 mg/ml. Standard compounds of BHA, BHT and vitamin E, which are recognized as strong anti-oxidants, and ZR drink described in Example 4 were also employed for comparison. Concentration of standard compounds in ethyl alcohol was 100 mg/ml each. The assay method to determine the scavenging activity of free radical DPPH was as described below.
Optical density OD was measured at 517 nm at 0 mm and 30 mm after mixing. Percent free radical scavenging activity was calculated as follows.
Percent activity=(Ac 1−(At2−Ab 1)}/Ac2×100,
Where Ac1=of control at 0 mm
Ac2=OD of control at 30 mm

[3] = Peroxide value (POV) activity, modified Rodan's method; conditions: 0.1 g/ml in ethyl alcohol, 0.05 ml; 50° C., 3 days, dark; OD 500 nm
Method: Peroxide value (POV) activity was determined by a slightly modified Rodan's method (Terasawa, N., Yamazaki, N., and Fukui Y: Antioxidant activity of water extracts of herbs, Nippon Shokuhin Kagaku Kogaku Kaishi, 48, 2, 99-104, 2001.)
After mixing in a screw-capped test tube, the reaction mass was incubated inside a dark incubator at 50° C. for 3 days. The assay of liberated peroxide compounds was carried out as follows.
After 3 minutes, optical density was measured at 500 nm. Percent POV activity was calculated as follows:
Percent activity=100×(OD of sample or standard/OD of control)

Molecule | Percent activity (free radical scavenging) [1] | Percent activity (free radical scavenging) [2] | Percent activity (POV) = 100 x OD of sample or standard / OD of control [3]
COc1ccc(O)c(C(C)(C)C)c1 [BHA] | 83.0% | 83.0% | 8.9%
Cc1cc(C(C)(C)C)c(O)c(C(C)(C)C)c1 [BHT] | 83.4% | 83.4% | 13.5%
vitamin E | 83.0% | 83.0% | 0%
